Here are results for seven compounds from article PMC12249957, “Molecular Hybrids of Thiazolidinone: Bridging Redox Modulation and Cancer Therapy” (International Journal of Molecular Sciences, 2025).

Data set [1] is described as follows: MTS cell viability assay, HFF-1. Type of data set: cell-based, human. The conditions noted are these: human, HFF-1 cells (foreskin fibroblasts). Here is the method: (§1) The MTS assay was employed in the current study to evaluate the in vitro effects of thiazolidinone derivatives (TZDs-1, 5, 6, and 7) on the cellular viability of the HFF-1, HepG2, and A549 cell lines following incubation for 24 and 48 h. Using the MTS assay allows for the quantitative measurement of how TZDs affect cell viability after a certain period of treatment. The 24- and 48-hour incubation periods are useful for observing either immediate and delayed cytotoxicity or effects on cell growth, providing more comprehensive data on the potential therapeutic or toxic properties of thiazolidinone derivatives.
(§2) All solvents used in the preparation of thiazolidinone derivatives were obtained in pure form from Sigma-Aldrich (St. Louis, MO, USA) and Thermo Fisher Scientific (Waltham, MA, USA). All other chemicals used herein were of analytical grade and were used without further purification. To separate and confirm the purity of thiazolidinone derivatives, column chromatography on silica gel (0.063–0.2 mm) and thin layer chromatography (TLC) with aluminum silica gel F254 were used. Human foreskin fibroblasts (HFF-1) (ATCC: SCRC-1041), hepatoblastoma cell line (HepG2) (ATCC: HB-8065), and human lung cancer cell line (A549) (ATCC: CCL-185) were used in this study to evaluate the cytotoxicity of the tested compounds. Distilled water for experiment preparation was generated using a Milli-Q® IQ 7005 Purification System (Millipore SAS, Molsheim, France).
(§3) HFF-1, HepG2, and A549 were cultured in DMEM (Sigma-Aldrich, St. Louis, MO, USA) medium complemented with 10% fetal bovine serum (FBS) (Sigma, Suffolk, UK), streptomycin ([…]), and penicillin (100 units/mL) (Sigma, Suffolk, UK) in a cell culture incubator (5% CO2 at 37 °C).
(§4) Thiazolidinone derivatives (TZDs-1, 5, 6, and 7) were prepared via dissolution in 10% DMSO and 8 serial dilutions and assessed starting from 5000 to 39 µg/mL. A CellTiter 96® AQueous One Solution Cell Proliferation Assay (MTS kit, Promega, Madison, WI, USA) was used to evaluate the cell viability of TZDs on the cells. Briefly, all cells were seeded into 96-well plates with a seeding density of 1.5 × 10^4 cells per well. After 24 h, cells adhered, and then, TZD derivatives were added, and plates were incubated in a cell culture incubator with 5% CO2 at 37 °C for 24 and 48 h. Completed DMEM was used as the positive control, and 0.1% Triton X-100 was used as the negative control. After incubation time, cells were washed with sterile phosphate-buffered saline, pH 7.4 (PBS), and then, a mixture of complete DMEM medium and MTS reagent was added to each well (100 µL of DMEM medium + 20 µL of MTS reagent). Finally, the plates were incubated for 3 h in a cell culture incubator. The absorbance at 492 nm was recorded using a Cytation ™ 3 Cell Imaging Multi-Mode Reader (BIOTEK Instruments Inc., Winooski, VT, USA). The percentage of cellular viability was calculated using the following equation:Cell Viability (%) = (S − T)/(H − T) × 100 where S is the absorbance of the cells treated with the applied compounds, T is the absorbance of the positive control, and H is the absorbance of the negative control. The results are presented as the mean ± SD of at least three independent measurements.

The subject of the next data set is HFF-1 cells. As to the kind of experiment: MTS cell viability assay, HFF-1. Type of data set: cell-based, human. The conditions noted are these: 48 h, 1250 µg/mL. Here is the method:
as §1, §2, §3, §4

Data set [2] can be described thus: MTS cell viability assay, HepG2. The conditions noted are these: human, HepG2 cells; for viability: concentrations of ≥1250 µg/mL, time not stated. The class given is cell-based. Here is the method:
as §1, §2, §3, §4

Data set [3] can be described thus: MTS cell viability assay, A549. Type of data set: cell-based. The settings on record: human, A549 cells. Here is the method:
as §1, §2, §3, §4

Data set [4] has as its system normal (HFF-1) and cancerous cells (HepG2 and A549). The experiment in a line: Summary of selectivity toward cancer cells (MTS viability, normal vs cancerous cells). The class given is cell-based, human. Here is the method: as §1, §3, §4
On the set-up of data set [5]: method as in doi:10.1016/j.molstruc.2024.139348. The settings on record: DPPH; unit inferred; cited from earlier work.
The target in data set [6] is insulin-like growth factor-1 receptor (IGF-1R). Details: method as in PMID 20178321. The conditions noted are these: read-out: IC50, IGF-1R inhibition; cited from earlier work.
Data set [7] can be described thus: DPPH radical-scavenging assay (antioxidant activity). The class given is biochemical. Here is the method: In this study, the antioxidant activity of the newly synthesized thiazolidinone derivative 5 was evaluated, and its IC50 value was compared with those of the parent compound, thiazolidinone 1; previously reported derivatives 6 and 7; and the reference antioxidant, ascorbic acid. To ensure a valid comparison, all compounds were assessed under identical conditions using the DPPH (2,2-diphenyl-1-picrylhydrazyl) radical-scavenging assay.
The antioxidant activity of thiazolidinone derivative 5 was evaluated under conditions similar to those reported in our previous work for thiazolidinone derivatives (1, 6, and 7) using the DPPH assay (2,2-diphenyl-1-picrylhydrazyl). The concentration needed to get rid of 50% of free radicals is called IC50 (half-maximal inhibitory concentration) (μg/mL). The value of the IC50 is determined by plotting antioxidant activity against the concentration employing the equation below:%Antioxidant activity = (Acontrol − Asample/Acontrol) × 100 where Acontrol is the absorbance of the DPPH solution without the sample, and Asample is the absorbance with the tested compound. These percentage inhibition values are then plotted against the logarithm of the compound concentrations to generate a dose–response curve. […]

Where only a bound is given, the exact number is not on record here.

For `COc1cc(/C=N/N=C2\SCC(=O)N2Cc2ccccc2)cc(OC)c1OC` [TZD-6], the viability at 24 h, 312 µg/mL in data set [1] (24 h, 312 µg/mL) came to 70%. Moreover, the viability at 24 h, 1250 µg/mL in data set [1] (24 h) is 2%; in data set [2] (24 h) it was 25%; in data set [3] (24 h), 13%. In addition, the viability at 48 h, 1250 µg/mL was 1 to 2% in data set [1], 12% in data set [2] and 9% in data set [3]. In addition, the viability at 48 h, 2500 µg/mL in data set [1] (2500 µg/mL) was 1 to 2%; in data set [2] (2500 µg/mL), 7%; in data set [3] (2500 µg/mL), 13%. Besides, the “HFF-1 Viability (%)” value in the data set on HFF-1 cells was 1–2%. The viability at 24 h, 156 µg/mL in data set [2] (24 h, 156 µg/mL) was found to be 76%; in data set [3] (24 h, 156 µg/mL), 78%. Also, the viability at 24 h, 5000 µg/mL was 35% in data set [2] (24 h, 5000 µg/mL) and 10% in data set [3] (24 h, 5000 µg/mL). The viability is under 25% in data set [2] and under 25% in data set [3] (concentrations of ≥1250 µg/mL, time not stated). Besides, the “Selectivity Toward Cancer Cells” value in data set [4] (24 h, 1250 µg/mL) is given as “Low (high toxicity to normal cells)”; in data set [4] (48 h, 1250 µg/mL), “Low”. For the same compound, the IC50 of antioxidant activity (Figure 3) in data set [5] was 111 µg/mL.

For `O=C1NC(=O)C(=Cc2ccccc2)S1` [5-benzylidenethiazolidine-2,4-dione], the IC50 in data set [6] is 57 nM.

As to `O=C1NC(=O)C(=Cc2ccco2)S1` [5-(furan-2-ylmethylene)thiazolidine-2,4-dione], in data set [6], the 50% inhibitory concentration (IC50) is 61 nM.

As to `O=C1O[C@H]([C@@H](O)CO)C(O)=C1O` [ascorbic acid, reference compound], the “IC50 of antioxidant activity (DPPH)” value in data set [7] came out at 11.76 µg/mL.

`COc1cc(/C=N/N=C2\SCC(=O)N2Cc2ccc([N+](=O)[O-])cc2)cc(OC)c1OC` [TZD-7]: the viability at 24 h, 39 µg/mL in data set [1] (24 h, 39 µg/mL) worked out at 135%. In addition, the values for the viability at 24 h, 1250 µg/mL in data set [1] (24 h), in data set [2] (24 h) and in data set [3] (24 h) were 110%, 96.4% and 70%, respectively. Also, the viability at 48 h, 1250 µg/mL in data set [1] is over 94%; in data set [2], about 23%; in data set [3] it was 82.3%. Moreover, the “Selectivity Toward Cancer Cells” value is “Moderate (better selectivity)” in data set [4] (24 h, 1250 µg/mL) and “High” in data set [4] (48 h, 1250 µg/mL). Moreover, the IC50 of antioxidant activity (Figure 3) in data set [5] is 200 µg/mL.

`COc1ccc(CN2C(=O)CSC2=NN=Cc2cc(OC)c(OC)c(OC)c2)cc1` [TZD-5, 3-(4-methoxybenzyl)-2-((3,4,5-trimethoxybenzylidene)hydrazineylidene) thiazolidin-4-one]: the “IC50 of antioxidant activity (DPPH)” value in data set [7] was determined as 24.4 µg/mL. For the same compound, the viability at 24 h, 2500 µg/mL in data set [1] (24 h, 2500 µg/mL) was 97%; in data set [2] (24 h, 2500 µg/mL) it was 63%; in data set [3] (24 h, 2500 µg/mL), 95.8%. The viability at 48 h, 2500 µg/mL was 48% in data set [1] (2500 µg/mL), 57% in data set [2] (2500 µg/mL) and 55% in data set [3] (2500 µg/mL). In addition, the “Selectivity Toward Cancer Cells” value is reported as “Moderate (better selectivity)” in data set [4] (24 h, 2500 µg/mL) and “Moderate” in data set [4] (48 h, 2500 µg/mL).

As to `COc1cc(C=NNC2=NC(=O)CS2)cc(OC)c1OC` [TZD-1, 2-(2-(3,4,5-trimethoxybenzylidene) hydrazineyl)thiazol-4(5H)-one], the viability at 24 h, 1250 µg/mL in data set [1] (24 h) came out at 6.45%; in data set [2] (24 h), 53.2%; in data set [3] (24 h) it was 75.6%. Also, the viability at 48 h, 1250 µg/mL in data set [1] stood at 15.3%; in data set [2], 21.9%; in data set [3] it was 70.6%. Besides, in data set [2], the viability was under 25%. Also, the “Selectivity Toward Cancer Cells” value is on record as “Low (high toxicity to normal cells)” in data set [4] (24 h, 1250 µg/mL) and “Low” in data set [4] (48 h, 1250 µg/mL). Moreover, the IC50 of antioxidant activity (Figure 3) in data set [5] was 263 µg/mL.
